Converted amounts (≈) assume the structure as drawn. Where two headings read alike, the source gives them in different places. Positions of bridges follow the written chain, without caps; N, C: chain ends. Non-standard residues stand in square brackets, D forms with d. Residues, ends and D or L forms follow the SMILES beside them. Lys(N3) = [N-]=[N+]=NCCCC[C@H](N)C(=O)O; R8 = C=CCCCCCC[C@@](C)(N)C(=O)O; Cba = N[C@@H](CC1CCC1)C(=O)O; S5 = C=CCCC[C@](C)(N)C(=O)O; βAla = NCCC(=O)O
How the values were obtained:
[1] = Experimental LogD (partition coefficient); conditions: not stated, Partition Coeff LogD
[2] = Nanoclick permeability assay
In short: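 Azido-peptide permeability was read as loss of NanoBRET signal (donor 450 nm, acceptor 610 nm) after adding NanoBret618-azide at 10 μM final.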

[3] = Solubility assay (kinetic solubility, PBS pH 7); type: physicochemical; conditions: pH 7, aqueous buffer, kinetic from dmso stock, pH 7, PBS; read-out: Solubility
In short: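 Values derive from peak-area ratios of sample versus a 100 µM standard, scaled by that standard's concentration.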

[4] = Lactate dehydrogenase (LDH) release assay; type: cell-based; conditions: read-out: LDH: Cytotoxicity assay EC50
In short: (§1)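 A p53 β-lactamase reporter HCT116 line, 8000 cells per well, is exposed to test compounds at 0.5% final DMSO and scored for LDH leakage.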

HCT116 cells = test: Lactate dehydrogenase (LDH) release assay; type: cell-based
In short: as §1

Row | Compound | logD [1] | cell entry EC50 [2] [nM] | EPSA (physchem) [A^2] | solubility kinetic [3] [µM] | EC50 ([4]; 0% FBS 4Hr) [nM] | LDH: Cytotoxicity assay % Effect (HCT116 cells; 0% FBS 4Hr) [%] | LDH: Cytotoxicity assay % Effect (HCT116 cells; 0% FBS 16Hr) [%] | EC50 ([4]; 10% FBS 4Hr) [nM] | LDH: Cytotoxicity assay % Effect (HCT116 cells; 10% FBS 4Hr) [%]
1 | CC(=O)N[C@@H](CCCCN=[N+]=[N-])C(=O)NCCC(=O)N[C@@H](CC(C)C)C(=O)N[C@H](C(=O)N[C@@H](Cc1ccccc1)C(=O)N[C@]1(C)CCCCCCC=CCCC[C@@](C)(C(=O)N[C@@H](Cc2c[nH]cn2)C(=O)N[C@@H](C)C(=O)N[C@@H](C)C(N)=O)NC(=O)[C@H](CC2CCC2)NC(=O)[C@H](CCC(N)=O)NC(=O)[C@H](C)NC(=O)[C@H](Cc2c[nH]c3ccccc23)NC(=O)[C@H](Cc2ccc(O)cc2)NC(=O)[C@H](CCC(=O)O)NC1=O)[C@@H](C)O [MP-177, AZIDE-ATSP-7041 (S12H)] (Ac-[Lys(N3)][βAla]LTF[R8]EYWAQ[Cba][S5]HAA-NH2; staple 6-13) | 2.74 | 149 | 227 | 6.5 (≈ 13.1 µg/mL) | > 50000 | 4.985 | – | – | –
2 | CC(=O)N[C@@H](CCCCN=[N+]=[N-])C(=O)NCCC(=O)N[C@@H](CC(C)C)C(=O)N[C@H](C(=O)N[C@@H](Cc1ccccc1)C(=O)N[C@]1(C)CCCCCCC=CCCC[C@@](C)(C(=O)N[C@@H](CCCCN)C(=O)N[C@@H](C)C(=O)N[C@@H](C)C(N)=O)NC(=O)[C@H](CC2CCC2)NC(=O)[C@H](CCC(N)=O)NC(=O)[C@H](C)NC(=O)[C@H](Cc2c[nH]c3ccccc23)NC(=O)[C@H](Cc2ccc(O)cc2)NC(=O)[C@H](CCC(=O)O)NC1=O)[C@@H](C)O [MP-551, AZIDE-ATSP-7041 (S12K)] (Ac-[Lys(N3)][βAla]LTF[R8]EYWAQ[Cba][S5]KAA-NH2; staple 6-13) | 2.83 | 253 | 216 | 2 (≈ 4.02 µg/mL) | > 50000 | 3.03 | -1.59 | – | –
3 | CC(=O)N[C@@H](CCCCN=[N+]=[N-])C(=O)NCCC(=O)N[C@@H](CCCCN)C(=O)N[C@H](C(=O)N[C@@H](Cc1ccccc1)C(=O)N[C@]1(C)CCCCCCC=CCCC[C@@](C)(C(=O)N[C@@H](CO)C(=O)N[C@@H](C)C(=O)N[C@@H](C)C(N)=O)NC(=O)[C@H](CC2CCC2)NC(=O)[C@H](CCC(N)=O)NC(=O)[C@H](C)NC(=O)[C@H](Cc2c[nH]c3ccccc23)NC(=O)[C@H](Cc2ccc(O)cc2)NC(=O)[C@H](CCC(=O)O)NC1=O)[C@@H](C)O [MP-546, AZIDE-ATSP-7041 (L1K)] | 2.85 | 210 | 229 | 2 (≈ 3.97 µg/mL) | > 50000 | 34.42 | 13.56 | – | –
4 | CC(=O)N[C@@H](CCCCN=[N+]=[N-])C(=O)NCCC(=O)N[C@@H](C)C(=O)N[C@H](C(=O)N[C@@H](Cc1ccccc1)C(=O)N[C@]1(C)CCCCCCC=CCCC[C@@](C)(C(=O)N[C@@H](C)C(=O)N[C@@H](C)C(=O)N[C@@H](C)C(N)=O)NC(=O)[C@H](CC2CCC2)NC(=O)[C@H](CCC(N)=O)NC(=O)[C@H](C)NC(=O)[C@H](Cc2c[nH]c3ccccc23)NC(=O)[C@H](Cc2ccc(O)cc2)NC(=O)[C@H](CCC(=O)O)NC1=O)[C@@H](C)O [MP-960, AZIDE-ATSP-7041 (L1A,S12A)] (Ac-[Lys(N3)][βAla]ATF[R8]EYWAQ[Cba][S5]AAA-NH2; staple 6-13) | 2.76 | 286 | 221 | 102 (≈ 194 µg/mL) | > 50000 | 17.36 | – | – | –
5 | CC(=O)N[C@@H](CCCCN=[N+]=[N-])C(=O)NCCC(=O)N[C@@H](CC(C)C)C(=O)N[C@H](C(=O)N[C@@H](Cc1ccccc1)C(=O)N[C@]1(C)CCCCCCC=CCCC[C@@](C)(C(=O)N[C@@H](C)C(=O)N[C@@H](C)C(=O)N[C@@H](C)C(N)=O)NC(=O)[C@H](CC2CCC2)NC(=O)[C@H](C)NC(=O)[C@H](C)NC(=O)[C@H](Cc2c[nH]c3ccccc23)NC(=O)[C@H](Cc2ccc(O)cc2)NC(=O)[C@H](CCC(=O)O)NC1=O)[C@@H](C)O [MP-8966, AZIDE-ATSP-7041 (Q9A,S12A)] (Ac-[Lys(N3)][βAla]LTF[R8]EYWAA[Cba][S5]AAA-NH2; staple 6-13) | 2.92 | 202 | 215 | 111 (≈ 211 µg/mL) | > 50000 | 5.4 | – | > 50000 | 4.079
6 | CC(=O)N[C@@H](CCCCN=[N+]=[N-])C(=O)NCCC(=O)N[C@@H](C)C(=O)N[C@H](C(=O)N[C@@H](Cc1ccccc1)C(=O)N[C@]1(C)CCCCCCC=CCCC[C@@](C)(C(=O)N[C@@H](CO)C(=O)N[C@@H](C)C(=O)N[C@@H](C)C(N)=O)NC(=O)[C@H](CC2CCC2)NC(=O)[C@H](CCC(N)=O)NC(=O)[C@H](C)NC(=O)[C@H](Cc2c[nH]c3ccccc23)NC(=O)[C@H](Cc2ccc(O)cc2)NC(=O)[C@H](CCC(=O)O)NC1=O)[C@@H](C)O [MP-952, AZIDE-ATSP-7041 (L1A)] | 2.73 | 192 | 223 | 109 (≈ 210 µg/mL) | > 50000 | 11.9 | 8.95 | – | –
7 | CC(=O)N[C@@H](CCCCN=[N+]=[N-])C(=O)NCCC(=O)N[C@@H](CC(C)C)C(=O)N[C@H](C(=O)N[C@@H](Cc1ccccc1)C(=O)N[C@]1(C)CCCCCCC=CCCC[C@@](C)(C(=O)N[C@@H](CO)C(=O)N[C@@H](C)C(=O)N[C@@H](C)C(N)=O)NC(=O)[C@H](CC2CCC2)NC(=O)[C@H](CCCCN)NC(=O)[C@H](C)NC(=O)[C@H](Cc2c[nH]c3ccccc23)NC(=O)[C@H](Cc2ccc(O)cc2)NC(=O)[C@H](CCC(=O)O)NC1=O)[C@@H](C)O [MP-550, AZIDE-ATSP-7041 (Q9K)] | 3.08 | 437 | 217 | 4 (≈ 7.88 µg/mL) | > 50000 | 7.145 | 4.1 | – | –
8 | CC(=O)N[C@@H](CCCCN=[N+]=[N-])C(=O)NCCC(=O)N[C@@H](C)C(=O)N[C@H](C(=O)N[C@@H](Cc1ccccc1)C(=O)N[C@]1(C)CCCCCCC=CCCC[C@@](C)(C(=O)N[C@@H](CO)C(=O)N[C@@H](C)C(=O)N[C@@H](C)C(N)=O)NC(=O)[C@H](CC2CCC2)NC(=O)[C@H](CCC(N)=O)NC(=O)[C@H](C)NC(=O)[C@H](Cc2c[nH]c3ccccc23)NC(=O)[C@H](Cc2ccc(O)cc2)NC(=O)[C@H](C)NC1=O)[C@@H](C)O [MP-958, AZIDE-ATSP-7041 (L1A,E5A)] (Ac-[Lys(N3)][βAla]ATF[R8]AYWAQ[Cba][S5]SAA-NH2; staple 6-13) | 3.13 | 333 | 207 | 5 (≈ 9.35 µg/mL) | > 50000 | 13.33 | 4.88 | – | –
9 | CC(=O)N[C@@H](CCCCN=[N+]=[N-])C(=O)NCCC(=O)N[C@@H](CC(C)C)C(=O)N[C@H](C(=O)N[C@@H](Cc1ccccc1)C(=O)N[C@]1(C)CCCCCCC=CCCC[C@@](C)(C(=O)N[C@@H](CO)C(=O)N[C@@H](C)C(=O)N[C@@H](C)C(N)=O)NC(=O)[C@H](CC2CCC2)NC(=O)[C@H](C)NC(=O)[C@H](C)NC(=O)[C@H](Cc2c[nH]c3ccccc23)NC(=O)[C@H](Cc2ccc(O)cc2)NC(=O)[C@H](CCC(=O)O)NC1=O)[C@@H](C)O [MP-955, AZIDE-ATSP-7041 (Q9A)] (Ac-[Lys(N3)][βAla]LTF[R8]EYWAA[Cba][S5]SAA-NH2; staple 6-13) | 2.94 | 582 | 215 | 86.5 (≈ 165 µg/mL) | > 50000 | 21.34 | – | > 50000 | -4.376
